Experimental data from US20260125359A1, “HETEROARYL COMPOUNDS AS MULTI-TARGET PROTEIN KINASE INHIBITORS” (FUJIAN HAIXI PHARMACEUTICALS CO., LTD., priority 2023, published 2026).

tested on: M-NFS-60 cells; test: M-NFS-60 cell in vitro assay (CCK, 48 h, M-CSF factor medium); assay type: cell-based; conditions: M-NFS-60 cells; read-out: M-NFS-60cellassay IC50
Description: To determine the inhibitory activity of compounds on M-NFS-60 cells.
• M-NFS-60 cell line (ATCC, Cat. No.: CRL-1838) • RPMI-1640 medium (Gibco, domestic subpackage, Cat. No.: C11875500BT) • Recombinant Mouse CSF1/M-CSF (Sino Biological Inc., Cat. No.: 51112-MNAH) • PAN/Serum (BioTECH, Cat. No.: P30-2602) • Trypsin/0.05% Trypsin-EDTA (Gibco, Cat. No.: 25300-062) • 0.4% Trypan Blue (Sigma, Cat. No.: T8154-20 ml) • Penicillin-Streptomycin (Hyclone, Cat. No.: SV30010) • DMSO (Solarbio, Cat. No.: D8371) • PBS (Solarbio, Cat. No.: P1020) • CCK (AbMole BioScience, Cat. No.: M4839-500Tests)
• 1) M-CSF factor stock solution: take 10 μg of powdered m-CSF factor, add 0.4 ml of saline, formulate 25 ug/ml and store at −80° C. • 2) M-CSF factor (25 ng/ml) medium: • 1640 (Gibco)+10% PAN+100×Penicillin-Streptomycin+100×M-CSF stock solution • 3) Complete medium: • 1640 (Gibco)+10% PAN+100×Penicillin-Streptomycin • 4) Compound preparation: 2-3 mg of the compound was added to DMSO to formulate a 30 mM stock solution, −80° C. refrigerator storage
• 1) Cell resuscitation: the frozen cells in the cryovial were thawed rapidly by shaking in a 37° C. water bath, then 4 mL of medium was added. After mixing evenly, they were centrifuged at 125×g for 5 min, and the supernatant was discarded. The cells were resuspended and transferred to the culture flasks, and were cultured in a 5% CO2 fully saturated humidity incubator. • 2) Cell passaging: M-NFS-60 cells are semi-suspension cells, which were collected directly in a 15 mL centrifuge tube, centrifuged at 125×g for 5 min. and the supernatant was discarded. The cells were resuspended and passaged into new culture flasks at a ratio of 1:5 to 1:10. • 3) After the newly resuscitated cells were passaged 1-2 times for cell stabilization, compound inhibition assays were started when the cells were in the logarithmic growth phase. • (a) Cell collection and counting: the same as the cell passaging step, centrifuge in two tubes, one tube with M-CSF factor medium to resuspend the cells, the other tube with complete medium to resuspend the cells. Take 10 μL of cell suspension in each tube, and count the cells by Tepan blue staining. • (b) Dilute the cell solution according to the concentration of inoculated cells respectively, the concentration of M-NFS-60 cells inoculated with factor was 5.56×10^4 cells/mL, and the concentration of inoculated without factor was 5×10^4 cells/mL. • (c) Seed plate: 384 well plate inoculated with M-NFS-60 cells, 36 uL/well, triplicate wells, the number of inoculated cells was equivalent to 2000 cells/well, set with blank control, factor free negative control, normal control, DMSO control and experimental wells. The cells were placed in a 5% CO2 fully saturated humidity incubator for 4 h. • (d) Sampling compounds: 96 well plates were used for compound preparation. The compound solution prepared in advance was diluted to corresponding gradient concentration with DMSO. An appropriate amount of the diluted solution in the previous step was added to an equal volume of factor containing medium. The 96 well plates were centrifuged at 1000 rpm for 5 min, which played the role of defoaming and spinning down droplets and condensation. Remove the 384 well plate from the incubator, add the diluted compound solution into each well sequentially, 4 μL/well; DMSO wells and normal wells were added with corresponding factor containing medium, 4 μL/well. Then it was put into CO2 incubator for 48 h. • (e) After incubation for 48 h, CCK was added to each well, 4 uL, and the plates were placed in the incubator for another 2 h, and then the OD (optical density) value at 450 nm was measured by microplate reader.
The IC50 values for each test compound were fitted using professional graphing and analysis software.

| SMILES | IC50 [nM] |
| --- | --- |
| Cn1cc(-c2cncc(N[C@H]3CCc4c(C(=O)Nc5cccc(CN6CCCCC6)c5)cccc43)c2)cn1 [Compound 14at] | 50 to 200 |
| CN(C)Cc1ccc(NC(=O)c2cccc3c2CC[C@@H]3Nc2cncc(-c3cnn(C)c3)c2)cc1 [Compound 14au] | 50 to 200 |
| Cn1cc(-c2cncc(N[C@H]3CCc4c(C(=O)Nc5cccc(CN6CCCC6)c5)cccc43)c2)cn1 [Compound 14av] | 50 to 200 |
| Cn1cc(-c2cncc(N[C@H]3CCc4c(C(=O)Nc5cccc(C6CC6)c5)cccc43)c2)cn1 [Compound 14aw] | < 50 |
| Cn1cc(-c2cncc(N[C@H]3CCc4c(C(=O)Nc5cccc(C(F)(F)F)c5)cccc43)c2)cn1 [Compound 14ax] | < 50 |
| CN1CCc2cc(NC(=O)c3cccc4c3CC[C@@H]4Nc3cncc(-c4cnn(C)c4)c3)ccc2C1 [Compound 14ay] | 50 to 200 |
| CN(C)Cc1cccc(NC(=O)c2cccc3c2CC[C@@H]3Nc2cncc(-c3cnn(C)c3)c2)c1 [Compound 14az] | 50 to 200 |
| Cc1cccc(C(=O)Nc2cccc3c2CC[C@H]3Oc2cncc(-c3cnn(C)c3)c2)c1 [Compound 16, (R)-3-methyl-N-(1-((5-(1-methyl-1H-pyrazol-4-yl)pyridin-3-yl)oxy)-2,3-dihydro-1H-inden-4-yl)benzamide] | > 500 |
| Cn1cc(-c2cncc(O[C@H]3CCc4c(C(=O)Nc5ccc(C(F)(F)F)cc5)cccc43)c2)cn1 [Compound 17, (S)-1-((5-(1-methyl-1H-pyrazol-4-yl)pyridin-3-yl)oxy)-N-(4-(trifluoromethyl)phenyl)-2,3-dihydro-1H-indene-4-carboxamide] | < 50 |
| CN1CCc2ccc(NC(=O)c3cccc4c3CC[C@@H]4Oc3cncc(-c4cnn(C)c4)c3)cc2C1 [Compound 18, (S)—N-(2-methyl-1,2,3,4-tetrahydroisoquinolin-7-yl)-1-((5-(1-methyl-1H-pyrazol-4-yl)pyridin-3-yl)oxy)-2,3-dihydro-1H-indene-4-carboxamide] | 50 to 200 |
| CN(C)Cc1ccc(NC(=O)c2cccc3c2CC[C@@H]3Oc2cncc(-c3cnn(C)c3)c2)cc1 [Compound 19c] | 50 to 200 |
| CN(C)Cc1cccc(NC(=O)c2cccc3c2CC[C@@H]3Oc2cncc(-c3cnn(C)c3)c2)c1 [Compound 19e] | 50 to 200 |
| CN1CCc2c(cccc2NC(=O)c2cccc3c2CC[C@@H]3Oc2cncc(-c3cnn(C)c3)c2)C1 [Compound 19g] | > 500 |
| CN1CCc2cc(NC(=O)c3cccc4c3CC[C@@H]4Oc3cncc(-c4cnn(C)c4)c3)ccc2C1 [Compound 19i] | 50 to 200 |
| CNCc1cccc(NC(=O)c2cccc3c2CC[C@@H]3Oc2cncc(-c3cnn(C)c3)c2)c1 [Compound 19l] | > 500 |
| Cn1cc(-c2cncc(O[C@H]3CCc4c(C(=O)Nc5cccc(C(C)(C)N)c5)cccc43)c2)cn1 [Compound 19m] | 200 to 500 |
| Cn1cc(-c2cncc(O[C@H]3CCc4c(C(=O)Nc5ccc6c(c5)OCCO6)cccc43)c2)cn1 [Compound 19n] | < 50 |
| CN1CC(c2cccc(NC(=O)c3cccc4c3CC[C@@H]4Oc3cncc(-c4cnn(C)c4)c3)c2)C1 [Compound 19o] | 50 to 200 |
| Cc1cc(NC(=O)c2cccc3c2CC[C@@H]3Oc2cncc(-c3cnn(C)c3)c2)ccn1 [Compound 19p] | < 50 |
| CN(C)Cc1cc(NC(=O)c2cccc3c2CC[C@@H]3Oc2cncc(-c3cnn(C)c3)c2)ccc1C(F)(F)F [Compound 19q] | < 50 |
| CN(C)CCOc1cccc(NC(=O)c2cccc3c2CC[C@@H]3Oc2cncc(-c3cnn(C)c3)c2)c1 [Compound 19r] | 50 to 200 |
| Cn1cc(-c2cncc(O[C@H]3CCc4c(C(=O)Nc5cccc(CN6CCC6)c5)cccc43)c2)cn1 [Compound 19s] | 200 to 500 |

| SMILES | IC50 [nM] |
| --- | --- |
| Cn1cc(-c2cncc(O[C@H]3CCc4c(C(=O)Nc5cncc(F)c5)cccc43)c2)cn1 [Compound 19t] | 50 to 200 |
| Cn1cc(-c2cncc(O[C@H]3CCc4c(C(=O)Nc5ccc6c(c5)CNC6)cccc43)c2)cn1 [Compound 19u] | > 500 |
| CN1Cc2ccc(NC(=O)c3cccc4c3CC[C@@H]4Oc3cncc(-c4cnn(C)c4)c3)cc2C1 [Compound 19v] | 200 to 500 |
| Cc1ncc(-c2cnn(C)c2)cc1O[C@H]1CCc2c(C(=O)Nc3ccc(C(F)(F)F)cc3)cccc21 [Compound 19w] | 200 to 500 |
| CN(c1cncc(-c2cnn(C)c2)c1)[C@H]1CCc2c(C(=O)Nc3ccc(C(F)(F)F)cc3)cccc21 [Compound 20, (S)-1-(methyl (5-(1-methyl-1H-pyrazol-4-yl)pyridin-3-yl)amino)-N-(4-(trifluoromethyl)phenyl)-2,3-dihydro-1H-indene-4-carboxamide] | < 50 |
| CN(c1cncc(-c2cnn(C)c2)c1)[C@H]1CCc2c(C(=O)Nc3cccc(C(F)(F)F)c3)cccc21 [Compound 22b] | < 50 |
| CN1CCc2ccc(NC(=O)c3cccc4c3CC[C@@H]4N(C)c3cncc(-c4cnn(C)c4)c3)cc2C1 [Compound 22c] | 50 to 200 |
| CN(C)Cc1cccc(NC(=O)c2cccc3c2CC[C@@H]3N(C)c2cncc(-c3cnn(C)c3)c2)c1 [Compound 22d] | 50 to 200 |
| CN1CCc2cc(NC(=O)c3cccc4c3CC[C@@H]4N(C)c3cncc(-c4cnn(C)c4)c3)ccc2C1 [Compound 22e] | 200 to 500 |
| CN(C)Cc1ccc(NC(=O)c2cccc3c2CC[C@@H]3N(C)c2cncc(-c3cnn(C)c3)c2)cc1 [Compound 22f] | > 500 |
| CN(c1cncc(-c2cnn(C)c2)c1)[C@H]1CCc2c(C(=O)Nc3nn(C)c4ccccc34)cccc21 [Compound 22g] | < 50 |
| CN(c1cncc(-c2cnn(C)c2)c1)[C@H]1CCc2c(NC(=O)c3ccc(C(F)(F)F)cc3)cccc21 [Compound 23, (S)—N-(1-(methyl (5-(1-methyl-1H-pyrazol-4-yl)pyridin-3-yl)amino)-2,3-dihydro-1H-inden-4-yl)-4-(trifluoromethyl)benzamide] | > 500 |
| Cn1cc(-c2cncc(N[C@H]3CCc4c(NC(=O)c5ccc6c(c5)OC(F)(F)O6)cccc43)n2)cn1 [Compound 24, (S)-2,2-difluoro-N-(1-((6-(1-methyl-1H-pyrazol-4-yl)pyrazin-2-yl)amino)-2,3-dihydro-1H-inden-4-yl)benzo[d][1,3]dioxole-5-carboxamide] | < 50 |
| Cc1cccc(C(=O)Nc2cccc3c2CC[C@@H]3Nc2cncc(-c3cnn(C)c3)n2)c1 [Compound 25a] | < 50 |
| Cc1cccc(C(=O)Nc2cccc3c2CC[C@H]3Nc2cncc(-c3cnn(C)c3)n2)c1 [Compound 25b] | > 500 |
| Cn1cc(-c2cncc(N[C@H]3CCc4c(NC(=O)c5cccc(C(F)(F)F)c5F)cccc43)n2)cn1 [Compound 25c] | < 50 |
| Cn1cc(-c2cncc(N[C@@H]3CCc4c(NC(=O)c5cccc(C(F)(F)F)c5F)cccc43)n2)cn1 [Compound 25d] | > 500 |
| CN1CCN(c2cccc(C(=O)Nc3cccc4c3CC[C@@H]4Nc3cncc(-c4cnn(C)c4)n3)c2)CC1 [Compound 25e] | 50 to 200 |
| CN1CCN(Cc2ccc(C(=O)Nc3cccc4c3CC[C@@H]4Nc3cncc(-c4cnn(C)c4)n3)cc2)CC1 [Compound 25f] | 50 to 200 |
| Cc1cccc(NC(=O)c2cccc3c2CC[C@@H]3Nc2cncc(-c3cnn(C)c3)n2)c1 [Compound 26, (S)-1-((6-(1-methyl-1H-pyrazol-4-yl)pyrazin-2-yl)amino)-N-(m-tolyl)-2,3-dihydro-1H-indene-4-carboxamide] | < 50 |
| Cn1cc(-c2cncc(N[C@H]3CCc4c(C(=O)Nc5cccc(C6CC6)c5)cccc43)n2)cn1 [Compound 27a] | < 50 |
| Cn1cc(-c2cncc(N[C@H]3CCc4c(C(=O)N5CCCCC5)cccc43)n2)cn1 [Compound 27b] | > 500 |
